Experimental data from US12558348B2, “Bioactive phytochemicals” (Phytoquest Limited, priority 2019, dated 2026).
Marks after values point to notes of the source that are not given here.

Tested on: TNF-α
Test: TNF-α production by LPS-stimulated BV-2 microglial cells
Format: cell-based, murine
Conditions: 24 hours
Method: idoBR1 was used in cell cultures of murine microglial cell line BV-2 at 0, 20, 40 and 80 μg/ml plus and minus sub-optimal LPS. Production of TNF-α and nitrite was measured after 24 hours.

In the case of `O=C(O)[C@@H]1NC[C@H](O)[C@@H](O)[C@@H]1O` [idoBR1, (2R,3R,4R,5S)-3,4,5-trihydroxypiperidine-2-carboxylic acid], the TNF-α production (20 μg/ml + LPS) is reported as 500** pg/ml, the TNF-α production (40 μg/ml + LPS) is reported as 470** pg/ml and the TNF-α production (80 μg/ml + LPS) is reported as 410*** pg/ml.
